ChEMBL document CHEMBL1122994, “Effect of structural modification of the hydantoin ring on anticonvulsant activity” (J Med Chem, 1985)
Activity calls are given as the source filed them. The rule behind the calls is not given here.

What was measured:
[1] = Toxic dose was evaluated by neurological toxicity (the rotarod test); format: organism-based; conditions: mouse, in vivo
Mus musculus [2] = assay: Anticonvulsant activity was evaluated by Neurologic toxicity (the rotarod test) at dose 300 mg/kg; 2=Noticeable activity; format: functional
Mus musculus [3] = organism: Mus musculus; assay: Effective dose was evaluated by maximal electroshock seizure (MES) test; format: functional
Mus musculus [4] = assay: Anticonvulsant activity was evaluated by subcutaneous pentylenetetrazole (Metrazol) (sc Met) seizure test at dose 300 mg/kg; 2=Noticeable activity; format: functional
Mus musculus [5] = assay: Anticonvulsant activity was evaluated by maximal electroshock seizure (MES) test at dose 100 mg/kg; 3=Noticeable activity; format: functional
Mus musculus [6] = assay: Effective dose was evaluated by subcutaneous pentylenetetrazole (Metrazol) (sc Met) seizure test; format: functional
Mus musculus [7] = assay: Anticonvulsant activity was evaluated by subcutaneous pentylenetetrazole (Metrazol) (sc Met) seizure test at dose 600 mg/kg; No activity; format: functional
Mus musculus [8] = assay: Anticonvulsant activity was evaluated by Neurologic toxicity (the rotarod test) at dose 600 mg/kg; No activity; format: functional
Mus musculus [9] = assay: Anticonvulsant activity was evaluated by maximal electroshock seizure (MES) test at dose 600 mg/kg; No activity; format: functional
Mus musculus [10] = assay: Anticonvulsant activity was evaluated by maximal electroshock seizure (MES) test at dose 600 mg/kg; 1=Noticeable activity; format: functional
Mus musculus [11] = assay: Anticonvulsant activity was evaluated by maximal electroshock seizure (MES) test at dose 300 mg/kg; 2=Noticeable activity; format: functional
Mus musculus [12] = assay: Anticonvulsant activity was evaluated by subcutaneous pentylenetetrazole (Metrazol) (sc Met) seizure test at dose 600 mg/kg; 1=Noticeable activity; format: functional
Mus musculus [13] = assay: Anticonvulsant activity was evaluated by Neurologic toxicity (the rotarod test) at dose 600 mg/kg; 1=Noticeable activity; format: functional
Mus musculus [14] = assay: Anticonvulsant activity was evaluated by subcutaneous pentylenetetrazole (Metrazol) (sc Met) seizure test at dose 100 mg/kg; 3=Noticeable activity; format: functional
Mus musculus [15] = assay: Anticonvulsant activity was evaluated by subcutaneous pentylenetetrazole (Metrazol) (sc Met) seizure test at dose 30 mg/kg; format: functional
Mus musculus [16] = assay: Effective dose was evaluated by subcutaneous pentylenetetrazole (Metrazol) (sc Met) seizure test; NE means not effective; format: functional, organism-based

O=C1CNC(=O)N1Cc1ccccc1
TD50 [1]: 224 mg/kg | Activity (Mus musculus [2]): 2 | ED50 (Mus musculus [3]): 65 mg/kg | Activity (Mus musculus [4]): 2 | Activity (Mus musculus [5]): 3 | ED50 (Mus musculus [6]): 114 mg/kg

NC(=O)NC(=O)Cc1ccccc1 [PHENACEMIDE]
ED50 (Mus musculus [3]): 87 mg/kg

CC1NC(=O)NC1=O (centres undefined)
Activity (Mus musculus [7]): 0 | Activity (Mus musculus [8]): 0 | Activity (Mus musculus [9]): 0

O=C1NC(c2ccccc2)C(O)N1c1ccccc1 (centres undefined)
Activity (Mus musculus [7]): 0 | Activity (Mus musculus [8]): 0 | Activity (Mus musculus [9]): 0

COc1cccc(CN2C(=O)NC(C)(C)C2O)c1 (centres undefined)
Activity (Mus musculus [10]): 1 | Activity (Mus musculus [7]): 0 | Activity (Mus musculus [8]): 0

COc1cccc(CCCN2C(=O)NC(C)(C)C2=O)c1
Activity (Mus musculus [2]): 2 | Activity (Mus musculus [11]): 2 | Activity (Mus musculus [12]): 1

CN1C(=O)CNC1=O
Activity (Mus musculus [7]): 0 | Activity (Mus musculus [8]): 0 | Activity (Mus musculus [9]): 0

Cc1cn(-c2ccccc2)c(O)n1
Activity (Mus musculus [10]): 1 | Activity (Mus musculus [7]): 0 | Activity (Mus musculus [13]): 1

CC1NC(=O)N(C)C1=O (centres undefined)
Activity (Mus musculus [7]): 0 | Activity (Mus musculus [8]): 0 | Activity (Mus musculus [9]): 0

CC1C(O)N(C)C(=O)N1C (centres undefined)
Activity (Mus musculus [7]): 0 | Activity (Mus musculus [8]): 0 | Activity (Mus musculus [9]): 0

COc1cccc(CN2C(=O)NC(C)(C)C2=O)c1
Activity (Mus musculus [10]): 1 | Activity (Mus musculus [7]): 0 | Activity (Mus musculus [8]): 0

CN1CC(c2ccccc2)NC1=O (centres undefined)
Activity (Mus musculus [2]): 2 | Activity (Mus musculus [11]): 2 | Activity (Mus musculus [12]): 1

Oc1nc(-c2ccccc2)cn1-c1ccccc1
Activity (Mus musculus [4]): 2 | Activity (Mus musculus [8]): 0 | Activity (Mus musculus [9]): 0

CC1C(=O)N(C)C(=O)N1C (centres undefined)
Activity (Mus musculus [4]): 2 | Activity (Mus musculus [8]): 0 | Activity (Mus musculus [9]): 0

Cn1ccnc1O
Activity (Mus musculus [7]): 0 | Activity (Mus musculus [8]): 0 | Activity (Mus musculus [9]): 0

COc1cc2c(cc1OC)C1N(CC2)C(=O)NC1(C)C (centres undefined)
Activity (Mus musculus [7]): 0 | Activity (Mus musculus [13]): 1 | Activity (Mus musculus [9]): 0

CN1C(=O)NCC1O (centres undefined)
Activity (Mus musculus [7]): 0 | Activity (Mus musculus [8]): 0 | Activity (Mus musculus [9]): 0

Cn1cc(-c2ccccc2)nc1O
Activity (Mus musculus [10]): 1 | Activity (Mus musculus [12]): 1 | Activity (Mus musculus [8]): 0

CC1(C)NC(=O)N(CCc2ccccc2)C1=O
TD50 [1]: 243 mg/kg | Activity (Mus musculus [2]): 2 | ED50 (Mus musculus [3]): 110 mg/kg | Activity (Mus musculus [4]): 2 | Activity (Mus musculus [5]): 3 | ED50 (Mus musculus [6]): 130 mg/kg

Cc1cn(Cc2ccccc2)c(O)n1
TD50 [1]: 268 mg/kg | ED50 (Mus musculus [3]): 90 mg/kg | Activity (Mus musculus [4]): 2 | Activity (Mus musculus [11]): 2 | Activity (Mus musculus [13]): 1

Oc1nccn1-c1ccccc1
TD50 [1]: 211 mg/kg | Activity (Mus musculus [2]): 2 | ED50 (Mus musculus [3]): 124 mg/kg | Activity (Mus musculus [4]): 2 | Activity (Mus musculus [5]): 3 | ED50 (Mus musculus [6]): 173 mg/kg

CC(N)C(=O)NCc1ccccc1 (centres undefined)
Activity (Mus musculus [2]): 2 | Activity (Mus musculus [11]): 2 | Activity (Mus musculus [7]): 0

CNC(=O)C(N)c1ccccc1 (centres undefined)
Activity (Mus musculus [7]): 0 | Activity (Mus musculus [8]): 0 | Activity (Mus musculus [9]): 0

O=C1NC(c2ccccc2)C(=O)N1Cc1ccccc1 (centres undefined)
Activity (Mus musculus [7]): 0 | Activity (Mus musculus [8]): 0 | Activity (Mus musculus [9]): 0

CN1C(=O)NC(c2ccccc2)C1=O (centres undefined)
TD50 [1]: 271 mg/kg | ED50 (Mus musculus [3]): 75 mg/kg | Activity (Mus musculus [13]): 1 | Activity (Mus musculus [5]): 3 | ED50 (Mus musculus [6]): 26 mg/kg | Activity (Mus musculus [14]): 3

Cc1cn(C)c(=O)n1C
Activity (Mus musculus [7]): 0 | Activity (Mus musculus [8]): 0 | Activity (Mus musculus [9]): 0

CC1NC(=O)N(Cc2ccccc2)C1=O (centres undefined)
Activity (Mus musculus [15]): 4 | Activity (Mus musculus [4]): 2 | Activity (Mus musculus [13]): 1

CNC(=O)C(NC(C)=O)c1ccccc1 (centres undefined)
Activity (Mus musculus [7]): 0 | Activity (Mus musculus [8]): 0 | Activity (Mus musculus [9]): 0

CC1NC(=O)N(C)C1O (centres undefined)
Activity (Mus musculus [7]): 0 | Activity (Mus musculus [8]): 0 | Activity (Mus musculus [9]): 0

O=C1NC(c2ccccc2)C(O)N1Cc1ccccc1 (centres undefined)
Activity (Mus musculus [7]): 0 | Activity (Mus musculus [8]): 0 | Activity (Mus musculus [9]): 0

CC1(C)NC(=O)N2C=Cc3ccccc3C21 (centres undefined)
Activity (Mus musculus [2]): 2 | Activity (Mus musculus [4]): 2 | Activity (Mus musculus [11]): 2

CC1NC(=O)N(c2ccccc2)C1O (centres undefined)
Activity (Mus musculus [10]): 1 | Activity (Mus musculus [12]): 1 | Activity (Mus musculus [13]): 1

O=C1NCC(O)N1Cc1ccccc1 (centres undefined)
Activity (Mus musculus [10]): 1 | Activity (Mus musculus [7]): 0 | Activity (Mus musculus [8]): 0

CC1NC(=O)N(Cc2ccccc2)C1O (centres undefined)
Activity (Mus musculus [11]): 2 | Activity (Mus musculus [12]): 1 | Activity (Mus musculus [13]): 1

CC1(C)NC(=O)N(CCc2ccccc2)C1O (centres undefined)
Activity (Mus musculus [10]): 1 | Activity (Mus musculus [12]): 1 | Activity (Mus musculus [13]): 1

CN1C(=O)NC(c2ccccc2)C1O (centres undefined)
Activity (Mus musculus [4]): 2 | Activity (Mus musculus [12]): 1 | Activity (Mus musculus [8]): 0

O=C1NC(=O)C(c2ccccc2)(c2ccccc2)N1 [PHENYTOIN]
ED50 (Mus musculus [3]): 10 mg/kg | ED50 (Mus musculus [16]): inactive

O=C1NC(c2ccccc2)C(=O)N1c1ccccc1 (centres undefined)
Activity (Mus musculus [7]): 0 | Activity (Mus musculus [8]): 0 | Activity (Mus musculus [9]): 0

CNC(C)CNCc1ccccc1 (centres undefined)
Activity (Mus musculus [2]): 2 | Activity (Mus musculus [7]): 0 | Activity (Mus musculus [9]): 0

Cc1cn(C)c(O)n1
Activity (Mus musculus [7]): 0 | Activity (Mus musculus [8]): 0 | Activity (Mus musculus [9]): 0

COc1cccc(CCCN2C(=O)NC(C)(C)C2O)c1 (centres undefined)
Activity (Mus musculus [4]): 2 | Activity (Mus musculus [11]): 2 | Activity (Mus musculus [13]): 1

CCC1(c2ccccc2)NC(=O)N(C)C1=O (centres undefined) [MEPHENYTOIN]
ED50 (Mus musculus [3]): 61 mg/kg | ED50 (Mus musculus [6]): 31 mg/kg

O=C1CNC(=O)N1c1ccccc1
Activity (Mus musculus [10]): 1 | Activity (Mus musculus [7]): 0 | Activity (Mus musculus [8]): 0

O=C1NCC(O)N1c1ccccc1 (centres undefined)
Activity (Mus musculus [7]): 0 | Activity (Mus musculus [8]): 0 | Activity (Mus musculus [9]): 0

COc1ccc2c(c1)CCCN1C(=O)NC(C)(C)C21 (centres undefined)
Activity (Mus musculus [7]): 0 | Activity (Mus musculus [8]): 0 | Activity (Mus musculus [9]): 0

Oc1nc(-c2ccccc2)cn1Cc1ccccc1
Activity (Mus musculus [7]): 0 | Activity (Mus musculus [8]): 0 | Activity (Mus musculus [9]): 0

O=C1NC(=O)C(c2ccccc2)N1 (centres undefined)
TD50 [1]: 399 mg/kg | ED50 (Mus musculus [3]): 156 mg/kg | Activity (Mus musculus [11]): 2 | Activity (Mus musculus [13]): 1 | ED50 (Mus musculus [6]): 109 mg/kg | Activity (Mus musculus [14]): 3

CNCC(NC)c1ccccc1 (centres undefined)
Activity (Mus musculus [2]): 2 | Activity (Mus musculus [7]): 0 | Activity (Mus musculus [9]): 0

CC(=O)NC(C)C(=O)NCc1ccccc1 (centres undefined)
ED50 (Mus musculus [3]): 77 mg/kg | Activity (Mus musculus [7]): 0 | Activity (Mus musculus [13]): 1 | Activity (Mus musculus [5]): 3

CC1NC(=O)N(c2ccccc2)C1=O (centres undefined)
Activity (Mus musculus [7]): 0 | Activity (Mus musculus [13]): 1 | Activity (Mus musculus [9]): 0
